Target: T1, Recombinant human KIF18A (1-467 His-tagged) protein (Homo sapiens, UniProt Q8NI77)
T1 construct: Recombinant human KIF18A (1-467 His-tagged) protein; His; made in house
Assay: KIF18A Enzyme Assay: microtubule-stimulated ATPase activity assay (ADP-Glo)
Type: biochemical
Conditions: KIF18A protein 30 nM, 30 μg/mL pig microtubules, ATP at Km 75 μM, ADP-Glo luminescence, RT
Text: KIF18A Enzyme Assay: Microtubule-stimulated ATPase activity assay is used to measure KIF18A enzyme activity after treatment with compound. Compounds were 2-fold serially diluted in DMSO (Sigma Inc) over 22-point concentration range. Recombinant human KIF18A (1-467 His-tagged) protein was expressed using a baculovirus system and purified by affinity chromatography by Amgen Inc. Concentrations of KIF18A protein, microtubules (MT), and ATP in the reaction were optimized for standardized homogenous enzyme assay using ADP-Glorm Kinase/ATPase Assay Kit (Promega Inc). The assay measures ADP formed from the ATPase reaction. […] Concentration-response curve-fitting and IC50 determination was performed using Genedata Screener Software (Standard 15.0.1, Genedata Inc) with a four-parameter logistic regression fit model.
Table A provides data for compounds exemplified in the present application and priority document thereof, as representative compounds of the present invention, as follows: chemical name (as named by either ACD software or ChemDraw (Professional 15.0)) and biological data (IC50 in μM). Ex. […] refers to Example No.

T1 sequence (Q8NI77 1-467): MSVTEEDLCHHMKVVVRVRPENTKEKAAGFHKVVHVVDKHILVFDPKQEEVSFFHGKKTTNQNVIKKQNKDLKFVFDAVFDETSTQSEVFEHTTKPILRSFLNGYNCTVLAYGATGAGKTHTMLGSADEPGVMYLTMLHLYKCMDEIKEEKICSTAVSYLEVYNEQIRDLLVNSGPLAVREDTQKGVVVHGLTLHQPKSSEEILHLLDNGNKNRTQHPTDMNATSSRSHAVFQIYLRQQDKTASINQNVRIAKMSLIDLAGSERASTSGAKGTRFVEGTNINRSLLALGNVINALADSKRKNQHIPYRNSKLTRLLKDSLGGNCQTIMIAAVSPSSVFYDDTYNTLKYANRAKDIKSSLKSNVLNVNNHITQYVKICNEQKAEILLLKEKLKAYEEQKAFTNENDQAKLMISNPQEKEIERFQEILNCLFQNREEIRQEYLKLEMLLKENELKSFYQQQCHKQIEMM
T1 sequence (P02550 whole entry partner): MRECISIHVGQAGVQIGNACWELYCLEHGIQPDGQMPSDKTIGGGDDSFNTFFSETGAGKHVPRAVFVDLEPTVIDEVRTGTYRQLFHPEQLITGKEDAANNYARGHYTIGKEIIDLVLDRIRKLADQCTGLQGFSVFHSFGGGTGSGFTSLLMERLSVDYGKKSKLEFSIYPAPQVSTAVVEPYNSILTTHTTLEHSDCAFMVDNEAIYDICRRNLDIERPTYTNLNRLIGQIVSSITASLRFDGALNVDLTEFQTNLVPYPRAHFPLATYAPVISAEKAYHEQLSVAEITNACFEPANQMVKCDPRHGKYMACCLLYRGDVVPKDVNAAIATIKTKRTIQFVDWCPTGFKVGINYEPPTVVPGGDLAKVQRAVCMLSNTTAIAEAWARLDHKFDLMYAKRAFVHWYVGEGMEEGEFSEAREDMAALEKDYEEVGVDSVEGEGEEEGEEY
T1 sequence (P02554 whole entry partner): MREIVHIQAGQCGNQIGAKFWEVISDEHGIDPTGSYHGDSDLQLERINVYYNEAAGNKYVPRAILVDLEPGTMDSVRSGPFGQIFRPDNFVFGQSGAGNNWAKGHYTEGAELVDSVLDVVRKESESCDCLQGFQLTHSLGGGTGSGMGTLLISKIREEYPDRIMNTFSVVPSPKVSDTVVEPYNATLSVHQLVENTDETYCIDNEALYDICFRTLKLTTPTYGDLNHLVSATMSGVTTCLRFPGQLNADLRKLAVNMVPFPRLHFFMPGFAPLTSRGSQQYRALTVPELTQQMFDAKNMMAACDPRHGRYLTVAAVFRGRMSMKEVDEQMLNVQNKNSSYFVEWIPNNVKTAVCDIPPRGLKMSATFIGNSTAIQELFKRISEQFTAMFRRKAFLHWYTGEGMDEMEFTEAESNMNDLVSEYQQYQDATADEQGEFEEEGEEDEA

Row | IC50 [nM] | Compound
1 | 601 | Cn1nccc1-c1ccc(C(=O)Nc2cccc(S(=O)(=O)NC(C)(C)C)c2)c(N2CCC3(CC2)CC3)c1 [Example 109-1, N-(3-(N-(tert-butyl)sulfamoyl)phenyl)-4-(1-methyl-1H-pyrazol-5-yl)-2-(6-azaspiro[2.5]octan-6-yl)benzamide]
2 | 323 | CC(C)(C)[S@](=N)(=O)c1cccc(NC(=O)c2ccc(NS(=O)(=O)CCO)cc2N2CCC3(CC2)CC3)c1 [Example 114-2, (S)-4-((2-hydroxyethyl)sulfonamido)-N-(3-(2-methylpropan-2-ylsulfonimidoyl)phenyl)-2-(6-azaspiro[2.5]octan-6-yl)benzamide]
3 | 115 | CC(C)(CO)Nc1cccc(NC(=O)c2ccc(NS(=O)(=O)C3(C)CC3)cc2N2CCC3(CC2)CC3)c1 [Example 101-3, N-(3-((1-hydroxy-2-methylpropan-2-yl)amino)phenyl)-4-((1-methylcyclopropane)-1-sulfonamido)-2-(6-azaspiro[2.5]octan-6-yl)benzamide]
4 | 124 | Cn1ccnc1-c1ccc(C(=O)Nc2cccc(S(=O)(=O)NC(C)(C)C)c2)c(N2CCC3(CC2)CC3)c1 [Example 109, N-(3-(N-(tert-butyl)sulfamoyl)phenyl)-4-(1-methyl-1H-imidazol-2-yl)-2-(6-azaspiro[2.5]octan-6-yl)benzamide]
5 | 40 | CC(C)(C)NS(=O)(=O)c1cccc(NC(=O)c2ccc(S(N)(=O)=O)cc2N2CCC3(CC2)CC3)c1 [Example 107-8, N-(3-(N-(tert-butyl)sulfamoyl)phenyl)-2-(6-azaspiro[2.5]octan-6-yl)-4-sulfamoylbenzamide]
6 | 76 | CC(C)(C)NS(=O)(=O)c1cccc(NC(=O)c2ccc(S(=O)(=O)NC(C)(C)C)cc2N2CCC3(CC2)CC3)c1 [Example 100-13, 4-(N-(tert-butyl)sulfamoyl)-N-(3-(N-(tert-butyl)sulfamoyl)phenyl)-2-(6-azaspiro[2.5]octan-6-yl)benzamide]
7 | 1090 | Cn1cc(-c2ccc(C(=O)Nc3cccc(S(=O)(=O)NC(C)(C)C)c3)c(N3CCC4(CC3)CC4)c2)cn1 [Example 109-2, N-(3-(N-(tert-butyl)sulfamoyl)phenyl)-4-(1-methyl-1H-pyrazol-4-yl)-2-(6-azaspiro[2.5]octan-6-yl)benzamide]
8 | 142 | N=[S@](=O)(c1cccc(NC(=O)c2ccc(NS(=O)(=O)CCO)cc2N2CCC3(CC2)CC3)c1)N1CCC1 (single isomer, unassigned) [Example 112-1]
9 | 94 | CC(C)c1cccc(NC(=O)c2ccc(S(C)(=O)=O)cc2N2CCC3(CC2)CC3)c1 [Example 100-2, N-(3-isopropylphenyl)-4-(methylsulfonyl)-2-(6-azaspiro[2.5]octan-6-yl)benzamide]
10 | 34 | Cc1cc(NC(=O)c2ccc(NS(=O)(=O)CCO)cc2N2CCC3(CC2)CC3)cc(N2CCC(F)(F)CC2)c1 [Example 104, N-(3-(4,4-difluoropiperidin-1-yl)-5-methylphenyl)-4-((2-hydroxyethyl)sulfonamido)-2-(6-azaspiro[2.5]octan-6-yl)benzamide]
11 | 57 | C[C@H](CO)S(=O)(=O)Nc1ccc(C(=O)Nc2cccc(S(=O)(=O)NC(C)(C)C)c2)c(N2CCC3(CC2)CC3)c1 (single isomer, unassigned) [Example 105-2]
12 | 27 | CC(C)(C)NS(=O)(=O)c1cccc(NC(=O)c2ccc(NS(C)(=O)=O)cc2N2CCC3(CC2)CC3)c1 [Example 102-1, N-(3-(N-(tert-butyl)sulfamoyl)phenyl)-4-(methylsulfonamido)-2-(6-azaspiro[2.5]octan-6-yl)benzamide]
13 | 141 | CC(C)(C)NS(=O)(=O)c1cccc(NC(=O)c2ccc([C@](C)(O)CO)cc2N2CCC3(CC2)CC3)c1 (single isomer, unassigned) [Example 108-2]
14 | 60 | CC(C)(C)NS(=O)(=O)c1cccc(NC(=O)c2ccc(S(=O)(=O)NC3COC3)cc2N2CCC3(CC2)CC3)c1 [Example 107-5, N-(3-(N-(tert-butyl)sulfamoyl)phenyl)-4-(N-(oxetan-3-yl)sulfamoyl)-2-(6-azaspiro[2.5]octan-6-yl)benzamide]
15 | 70 | CN(C)S(=O)(=O)c1ccc(C(=O)Nc2cccc(S(=O)(=O)NC(C)(C)C)c2)c(N2CCC3(CC2)CC3)c1 [Example 107-3, N-(3-(N-(tert-butyl)sulfamoyl)phenyl)-4-(N,N-dimethylsulfamoyl)-2-(6-azaspiro[2.5]octan-6-yl)benzamide]
16 | 92 | CC(C)(C)NS(=O)(=O)c1cccc(NC(=O)c2ccc([C@@](C)(O)CO)cc2N2CCC3(CC2)CC3)c1 (single isomer, unassigned) [Example 108-1]

Row | IC50 [nM] | Compound
17 | 139 | O=C(NCCO)c1ccc(C(=O)Nc2cccc(S(=O)(=O)C3CCCC3)c2)c(N2CCC3(CC2)CC3)c1 [Example 111-4, N^1-(3-(cyclopentylsulfonyl)phenyl)-N^4-(2-hydroxyethyl)-2-(6-azaspiro[2.5]octan-6-yl)terephthalamide]
18 | 362 | CC(C)(C)c1cccc(NC(=O)c2ccc(S(C)(=O)=O)cc2N2CCC3(CC2)CC3)c1 [Example 100-4, N-(3-(tert-butyl)phenyl)-4-(methylsulfonyl)-2-(6-azaspiro[2.5]octan-6-yl)benzamide]
19 | 173 | CC(C)(C)NS(=O)(=O)c1cccc(NC(=O)c2ccc(S(=O)(=O)C3(C)COC3)cc2N2CCC3(CC2)CC3)c1 [Example 100, N-(3-(N-(tert-Butyl)sulfamoyl)phenyl)-4-((3-methyloxetan-3-yl)sulfonyl)-2-(6-azaspiro[2.5]octan-6-yl)benzamide]
20 | 43 | CC(C)(C)NS(=O)(=O)c1cccc(NC(=O)c2ccc(S(=O)(=O)NCCO)cc2N2CCC3(CC2)CC3)c1 [Example 107-2, N-(3-(N-(tert-butyl)sulfamoyl)phenyl)-4-(N-(2-hydroxyethyl)sulfamoyl)-2-(6-azaspiro[2.5]octan-6-yl)benzamide]
21 | 58 | CC(C)(C)NS(=O)(=O)c1cccc(NC(=O)c2ccc(NC(C)(C)CO)cc2N2CCC3(CC2)CC3)c1 [Example 110, N-(3-(N-(tert-Butyl)sulfamoyl)phenyl)-4-((1-hydroxy-2-methylpropan-2-yl)amino)-2-(6-azaspiro[2.5]octan-6-yl)benzamide]
22 | 12 | O=C(Nc1cccc(N2CCC(F)(F)CC2)c1)c1ccc(NS(=O)(=O)CCO)cc1N1CCC2(CC1)CC2 [Example 104-1, N-(3-(4,4-difluoropiperidin-1-yl)phenyl)-4-((2-hydroxyethyl)sulfonamido)-2-(6-azaspiro[2.5]octan-6-yl)benzamide]
23 | 246 | CS(=O)(=O)c1ccc(C(=O)Nc2cccc3cccnc23)c(N2CCC3(CC2)CC3)c1 [Example 100-5, 4-(methylsulfonyl)-N-(quinolin-8-yl)-2-(6-azaspiro[2.5]octan-6-yl)benzamide]
24 | 26 | O=C(Nc1ccc(NS(=O)(=O)CCO)cc1N1CCC2(CC1)CC2)c1cccc(N2CCCCC2)c1 [Example 115, N-(4-((2-Hydroxyethyl)sulfonamido)-2-(6-azaspiro[2.5]octan-6-yl)phenyl)-3-(piperidin-1-yl)benzamide]
25 | 177 | C[C@@H]1CN(c2cc(NC(=O)c3ccc(NS(=O)(=O)CCO)cc3N3CCC4(CC3)CC4)ccc2F)CCO1 [Example 103-4, (R)-N-(4-fluoro-3-(2-methylmorpholino)phenyl)-4-((2-hydroxyethyl)sulfonamido)-2-(6-azaspiro[2.5]octan-6-yl)benzamide]
26 | 29 | O=C(Nc1cccc(N2CCC(F)(F)CC2)c1F)c1ccc(NS(=O)(=O)CCO)cc1N1CCC2(CC1)CC2 [Example 104-2, N-(3-(4,4-difluoropiperidin-1-yl)-2-fluorophenyl)-4-((2-hydroxyethyl)sulfonamido)-2-(6-azaspiro[2.5]octan-6-yl)benzamide]
27 | 630 | CS(=O)(=O)c1ccc(C(=O)Nc2cccc3ccsc23)c(N2CCC3(CC2)CC3)c1 [Example 100-9, N-(benzo[b]thiophen-7-yl)-4-(methylsulfonyl)-2-(6-azaspiro[2.5]octan-6-yl)benzamide]
28 | 26 | CC(C)S(=O)(=O)Nc1ccc(C(=O)Nc2cccc(S(=O)(=O)NC(C)(C)C)c2)c(N2CCC3(CC2)CC3)c1 [Example 102-3, N-(3-(N-(tert-butyl)sulfamoyl)phenyl)-4-((1-methylethyl)sulfonamido)-2-(6-azaspiro[2.5]octan-6-yl)benzamide]
29 | 88 | CC(C)(C)NS(=O)(=O)c1cccc(NC(=O)c2ccc(C3(O)COC3)cc2N2CCC3(CC2)CC3)c1 [Example 100-15, N-(3-(N-(tert-butyl)sulfamoyl)phenyl)-4-(3-hydroxyoxetan-3-yl)-2-(6-azaspiro[2.5]octan-6-yl)benzamide]
30 | 51 | CC(C)(C)NS(=O)(=O)c1cccc(NC(=O)c2ccc(CS(C)(=O)=O)cc2N2CCC3(CC2)CC3)c1 [Example 100-11, N-(3-(N-(tert-butyl)sulfamoyl)phenyl)-4-((methylsulfonyl)methyl)-2-(6-azaspiro[2.5]octan-6-yl)benzamide]
31 | 66 | CC(C)(CO)Nc1cccc(NC(=O)c2ccc(S(=O)(=O)NC3(C)COC3)cc2N2CCC3(CC2)CC3)c1F [Example 101-1, N-(2-fluoro-3-((1-hydroxy-2-methylpropan-2-yl)amino)phenyl)-4-(N-(3-methyloxetan-3-yl)sulfamoyl)-2-(6-azaspiro[2.5]octan-6-yl)benzamide]
